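Interpolation was linear, between the two tested concentrations surrounding the appropriate level; five concentrations were tested over 48 hours in 96-well plates. GI50 marks 50% less growth. Definition used: TGI = concentration required for complete inhibition of growth.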
Experiments:
Test in all cases: inhibition of tumour cell growth, NCI panel, 48 h
[1] = test system: COLO 205 colon
[2] = test system: A498 renal
[3] = test system: MALME-3M melanoma
[4] = test system: HCT-116 colon
[5] = test system: A549 NSCLC
[6] = test system: SN12C renal
[7] = test system: UACC-257 melanoma
[8] = test system: PC-3 prostate
[9] = test system: HL-60(TB) leukemia
[10] = test system: SK-MEL-28 melanoma
[11] = test system: IGROV1 ovarian
[12] = test system: NCI-H460 lung
[13] = test system: SF-268 CNS
[14] = test system: OVCAR-5 ovarian
[15] = test system: TK-10 renal
[16] = test system: HOP-92 NSCLC
[17] = test system: UACC-62 melanoma
[18] = test system: HCT-15 colon
[19] = test system: CCRF-CEM leukemia

Cc1ccc2c(c1)SC1=Nc3sc4cc(C)ccc4[n+]3CN12
TGI [1]: 13.1 µM | TGI [2]: 87.1 µM | TGI [3]: 4.63 µM | TGI [4]: 35 µM | TGI [5]: 67.1 µM | TGI [6]: 56.2 µM | TGI [7]: 12.8 µM | TGI [8]: > 100 µM | TGI [9]: 9.77 µM | TGI [10]: 29.2 µM | TGI [11]: 34 µM | TGI [12]: > 100 µM | TGI [13]: > 100 µM | TGI [14]: > 100 µM | TGI [15]: 48 µM | TGI [16]: 68 µM | TGI [17]: 16.6 µM | TGI [18]: > 100 µM

Cc1c2ccccc2c(C2C3C(=O)N(c4ccc(Br)cc4)C(=O)C3ON2C(C(N)=O)c2ccccc2)c2ccccc12 (configuration not stated)
TGI [1]: 3.33 µM | TGI [2]: 11.7 µM | TGI [3]: 34.1 µM | TGI [4]: > 100 µM | TGI [5]: 14.1 µM | TGI [6]: 53.5 µM | TGI [7]: 62.4 µM | TGI [8]: > 100 µM | TGI [9]: 14 µM | TGI [19]: 22.4 µM | TGI [10]: 74.6 µM | TGI [11]: 18.2 µM | TGI [12]: 22.2 µM | TGI [13]: > 100 µM | TGI [14]: 23.2 µM | TGI [16]: 39.4 µM | TGI [17]: 40.4 µM | TGI [18]: 18.7 µM

COC1/C=C(C)/C=C/C(C)/C=C/C(=O)OC(/C(C)=C/C=C(\C)CNC(=O)[C@H](CO)NC=O)C(C)/C=C/C=C/C(OC)CC/C=C(C)/C=C/C1 (some centres not stated)
GI50 [1]: 0.0331 µM | TGI [1]: > 1 µM | TGI [2]: > 1 µM | TGI [3]: 0.385 µM | TGI [4]: > 1 µM | TGI [5]: > 1 µM | TGI [6]: > 1 µM | TGI [7]: > 0.206 µM | TGI [8]: > 0.352 µM | TGI [9]: 0.0957 µM | TGI [19]: > 1 µM | TGI [10]: > 1 µM | TGI [11]: > 1 µM | TGI [12]: > 1 µM | TGI [13]: > 1 µM | TGI [14]: > 1 µM | TGI [15]: > 1 µM | TGI [16]: > 0.267 µM | TGI [17]: 0.0553 µM | TGI [18]: > 1 µM

O=C(CSCC(=O)N/N=C/c1ccc2c(c1)OCO2)N/N=C/c1ccc2c(c1)OCO2
TGI [2]: > 100 µM | TGI [3]: > 100 µM | TGI [4]: > 100 µM | TGI [5]: > 100 µM | TGI [6]: > 100 µM | TGI [7]: > 100 µM | TGI [8]: > 100 µM | TGI [9]: > 100 µM | TGI [19]: > 100 µM | TGI [10]: > 100 µM | TGI [11]: > 100 µM | TGI [12]: > 100 µM | TGI [13]: > 100 µM | TGI [14]: > 100 µM | TGI [15]: > 100 µM | TGI [16]: > 100 µM | TGI [17]: > 100 µM | TGI [18]: > 100 µM

c1ccc2c(CSCc3cccc4ccccc34)cccc2c1
TGI [2]: > 100 µM | TGI [3]: > 100 µM | TGI [4]: > 100 µM | TGI [5]: > 100 µM | TGI [6]: > 100 µM | TGI [7]: > 100 µM | TGI [8]: > 100 µM | TGI [19]: > 100 µM | TGI [10]: > 100 µM | TGI [11]: > 100 µM | TGI [12]: > 100 µM | TGI [13]: > 100 µM | TGI [14]: > 100 µM | TGI [15]: > 100 µM | TGI [16]: > 100 µM | TGI [17]: > 100 µM | TGI [18]: > 100 µM

CC(C)(C)[Si](OC1CCOC1=O)(c1ccccc1)c1ccccc1 (configuration not stated)
TGI [1]: > 10 µM | TGI [2]: 63.8 µM | TGI [3]: 45.1 µM | TGI [4]: 26.6 µM | TGI [5]: 62.7 µM | TGI [6]: 33.5 µM | TGI [7]: 50.4 µM | TGI [9]: > 100 µM | TGI [19]: > 100 µM | TGI [10]: 62.6 µM | TGI [11]: > 100 µM | TGI [12]: 49.3 µM | TGI [13]: > 100 µM | TGI [14]: > 100 µM | TGI [15]: 84.6 µM | TGI [16]: > 10 µM | TGI [17]: 29.3 µM | TGI [18]: 61.5 µM

CCCCc1ccc(N=C(N)N)cc1
TGI [1]: 35.4 µM | TGI [2]: > 100 µM | TGI [3]: > 100 µM | TGI [4]: > 100 µM | TGI [5]: > 100 µM | TGI [6]: > 100 µM | TGI [7]: > 100 µM | TGI [8]: > 100 µM | TGI [9]: 73.6 µM | TGI [19]: 53.7 µM | TGI [10]: > 100 µM | TGI [11]: 71.7 µM | TGI [12]: 61.8 µM | TGI [13]: > 100 µM | TGI [14]: > 100 µM | TGI [15]: 63.9 µM | TGI [16]: > 100 µM | TGI [17]: > 100 µM | TGI [18]: > 100 µM

COc1cc(C(=O)NC2CCc3cc(OC)c(OC)c(OC)c3-c3ccc(OC)c(=O)cc32)cc(OC)c1OC (configuration not stated)
TGI [1]: 0.23 µM | TGI [2]: 8.44 µM | TGI [3]: 85.3 µM | TGI [4]: 1.69 µM | TGI [5]: > 100 µM | TGI [6]: > 100 µM | TGI [7]: 59.3 µM | TGI [8]: > 100 µM | TGI [9]: 0.262 µM | TGI [19]: > 35 µM | TGI [10]: > 100 µM | TGI [11]: 71.6 µM | TGI [12]: 15.3 µM | TGI [13]: 42.4 µM | TGI [14]: > 100 µM | TGI [15]: > 91.6 µM | TGI [16]: 3.62 µM | TGI [17]: 45.9 µM | TGI [18]: > 100 µM

Source: PubChem BioAssay (NCI)
